Converted amounts (≈) assume the structure as drawn. Like-named read-outs stand apart in the source and are kept apart here.
Assays:
[1] = test system: eosinophile infiltration in mice actively sensitized with ascaris; experiment: Test for eosinophile infiltration in mice actively sensitized with ascaris, administered two times a day; format: in vivo; settings: orally 5 mg/kg two times a day; for inhibition in vivo at 5 mg/kg: Mus musculus, po, eosinophile count in BALF 48 hours after sensitization vs ascaris-sensitized group, read-out: suppression rate (%); for Average total eosinophile count (×10^5) of (ascaris-sensitized + substance under test) group: BALF 48 hours after sensitization
Protocol: Test for eosinophile infiltration in mice actively sensitized with ascaris (antigen to pig roundworm):
It has been reported that infiltration of eosinophilic cells is induced by active sensitization with ascaris {Int. Arch. Immuno., 108, 11-18 (1995)}. An evaluation of the compounds under test was performed according to the evaluation method described herein. The substance under test was orally administered in an amount of 5 mg/kg, two times a day. The total cell count and the eosinophile count in BALF of 48 hours after sensitization were calculated, and the effects were determined by comparing with the group not administered with the substance under test.

[2] = target: T1, hα4 and β1 integrins (Homo sapiens, UniProt P05556+P13612); experiment: In vitro inhibition of binding between CHO cells expressing hα4 and β1 integrins and Eu3+-hVCAM-1 D1D7-IgG; settings: for Ki: CHO cells expressing hα4 and β1 integrins, Eu3+-hVCAM-1 D1D7-IgG ligand, without HSA; for IC50: in the presence of 3% human serum albumin (HSA final concentration 3%)
T1 construct: expressed in transfected cells; host or cells: CHO cells
T1 sequence (P13612 34-1032): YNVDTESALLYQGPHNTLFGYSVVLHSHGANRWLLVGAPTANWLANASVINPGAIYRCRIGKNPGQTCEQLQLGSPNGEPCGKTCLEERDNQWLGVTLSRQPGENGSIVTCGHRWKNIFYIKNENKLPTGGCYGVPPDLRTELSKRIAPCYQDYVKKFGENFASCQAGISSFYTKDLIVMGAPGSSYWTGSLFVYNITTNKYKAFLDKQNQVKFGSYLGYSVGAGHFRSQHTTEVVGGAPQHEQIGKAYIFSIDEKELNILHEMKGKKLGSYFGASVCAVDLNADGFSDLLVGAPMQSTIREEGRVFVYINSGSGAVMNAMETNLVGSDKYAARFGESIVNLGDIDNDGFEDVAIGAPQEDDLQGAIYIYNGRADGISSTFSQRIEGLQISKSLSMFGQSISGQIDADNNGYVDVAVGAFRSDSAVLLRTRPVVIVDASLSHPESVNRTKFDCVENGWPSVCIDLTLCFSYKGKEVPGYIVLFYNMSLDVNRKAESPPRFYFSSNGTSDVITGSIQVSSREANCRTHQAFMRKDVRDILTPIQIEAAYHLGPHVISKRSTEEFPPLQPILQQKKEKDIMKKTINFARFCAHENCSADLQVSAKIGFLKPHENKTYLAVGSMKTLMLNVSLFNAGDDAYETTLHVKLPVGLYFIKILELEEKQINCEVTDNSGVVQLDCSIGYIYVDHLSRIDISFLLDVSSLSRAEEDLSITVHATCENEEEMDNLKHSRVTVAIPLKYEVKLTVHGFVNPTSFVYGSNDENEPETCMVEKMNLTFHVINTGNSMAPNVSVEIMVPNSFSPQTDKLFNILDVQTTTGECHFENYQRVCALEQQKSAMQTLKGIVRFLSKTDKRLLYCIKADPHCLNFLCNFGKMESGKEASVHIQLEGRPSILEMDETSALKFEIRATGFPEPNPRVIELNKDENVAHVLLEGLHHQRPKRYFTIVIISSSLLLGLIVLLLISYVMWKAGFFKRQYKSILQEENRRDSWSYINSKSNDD
T1 sequence (P05556 21-798): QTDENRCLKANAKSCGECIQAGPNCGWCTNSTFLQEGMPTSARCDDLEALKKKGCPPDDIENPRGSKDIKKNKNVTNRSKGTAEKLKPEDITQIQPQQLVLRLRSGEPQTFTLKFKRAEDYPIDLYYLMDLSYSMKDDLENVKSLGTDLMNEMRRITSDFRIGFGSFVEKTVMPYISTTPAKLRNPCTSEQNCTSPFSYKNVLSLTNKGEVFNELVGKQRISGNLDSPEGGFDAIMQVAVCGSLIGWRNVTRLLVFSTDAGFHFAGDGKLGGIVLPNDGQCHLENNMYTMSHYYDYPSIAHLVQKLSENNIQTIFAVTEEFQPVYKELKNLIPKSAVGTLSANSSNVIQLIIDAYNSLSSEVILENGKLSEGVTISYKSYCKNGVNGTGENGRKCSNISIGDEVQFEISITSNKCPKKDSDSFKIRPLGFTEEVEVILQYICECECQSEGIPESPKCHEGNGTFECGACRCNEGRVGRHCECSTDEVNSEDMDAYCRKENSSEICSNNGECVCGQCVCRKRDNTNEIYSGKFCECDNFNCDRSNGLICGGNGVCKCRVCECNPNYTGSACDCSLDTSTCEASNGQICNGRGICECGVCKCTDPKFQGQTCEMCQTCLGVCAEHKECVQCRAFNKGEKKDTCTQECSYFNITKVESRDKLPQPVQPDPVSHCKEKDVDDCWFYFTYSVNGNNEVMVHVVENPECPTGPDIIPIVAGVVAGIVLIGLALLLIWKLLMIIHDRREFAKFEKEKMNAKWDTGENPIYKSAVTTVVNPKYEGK
Procedure, shortened: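 Bound europium-labelled VCAM-1 D1D7-IgG on α4β1-expressing CHO cells was measured by time-resolved fluorescence after washing at 4 °C. Ligand (2 nM working dilution) and test compound, with or without 3% final HSA, were co-incubated for 1 h at room temperature in Mn²⁺-containing HEPES buffer, pH 7.5. IC50 came from % binding inhibition; Ki was calculated from ligand concentration and Scatchard Kd.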

[3] = for Solubility, First liquid of Japanese Pharmacopoeia: pH 1.2; for Solubility, Second liquid of Japanese Pharmacopoeia: pH 6.8
Protocol: (§1) The solubilities of the substance under test in the first liquid (JP1, pH=1.2) of the Japanese Pharmacopoeia and the second liquid (JP2, pH=6.8) of the Japanese Pharmacopoeia, were evaluated.

[4] = Solubility test in first and second liquid of the Japanese Pharmacopoeia
Protocol: as §1

[5] = Test for pharmacokinetics and oral absorbability in monkeys; format: in vivo; settings: orally 0.5 mg/kg, single agent; for AUC (ng · h/ml): total area under the plasma concentration versus time curve: LC/MS/MS
Protocol: The pharmacokinetic parameters in the case of orally administering (0.5 mg/kg, single agent) the substance under test to monkeys, were as follows.

[6] = first liquid of the Japanese Pharmacopoeia (JP1), pH 1.2, simulated gastric fluid, First liquid of Japanese Pharmacopoeia (μg/mL), JP1, pH=1.2
[7] = second liquid of the Japanese Pharmacopoeia (JP2), pH 6.8, aqueous buffer, Second liquid of Japanese Pharmacopoeia (μg/mL), JP2, pH=6.8

Compound | Ki [2] | IC50 [2] | Solubility, First liquid of Japanese Pharmacopoeia [3] | Solubility, Second liquid of Japanese Pharmacopoeia [3] | solubility [4, 6] | solubility [4, 7] | Cltot (mL/min/kg): apparent plasma clearance [5] | AUC (ng · h/ml): total area under the plasma concentration versus time curve [5] | inhibition in vivo at 5 mg/kg [1] | Average total eosinophile count (×10^5) of (ascaris-sensitized + substance under test) group [1] | Solubility, First liquid of Japanese Pharmacopoeia ([4]; JP1, pH=1.2) | Solubility, Second liquid of Japanese Pharmacopoeia ([4]; JP2, pH=6.8)
O=C(Nc1cc(F)c(CC(=O)N2C[C@@H](N3CCCCC3)C[C@H]2CO[C@H]2CC[C@H](C(=O)O)CC2)cc1Cl)c1csc2ccccc12 [Example 94, Trans-4-[1-[[4-[(benzo[b]thiophen-3-ylcarbonyl)amino]-5-chloro-2-fluorophenyl]acetyl]-(4S)-(piperidin-1-yl)-(2S)-pyrrolidinylmethoxy]cyclohexanecarboxylic acid] | 0.93 nM | 2.9 nM |  |  |  |  |  |  | 59% | 1.24 ×10^5 |  | 
CO[C@H]1CN([C@H]2C[C@@H](CO[C@H]3CC[C@H](C(=O)O)CC3)N(C(=O)Cc3ccc(NC(=O)c4coc5ccccc45)c(Cl)c3)C2)C[C@H]1OC (relative stereo) [Example 61, Trans-4-[1-[[4-[(benzo[b]furan-3-ylcarbonyl)amino]-3-chlorophenyl]acetyl]-(4S)-(cis-3,4-dimethoxypyrrolidin-1-yl)-(2S)-pyrrolidinylmethoxy]cyclohexanecarboxylic acid] | 1.6 nM | 5.5 nM | 1100 µg/mL | 1300 µg/mL |  |  |  |  |  |  |  | 
C[C@@H]1CN([C@H]2C[C@@H](CO[C@H]3CC[C@H](C(=O)O)CC3)N(C(=O)Cc3cc(Cl)c(NC(=O)c4coc5ccccc45)cc3Cl)C2)C[C@H](C)O1 [Example 83, Trans-4-[1-[[4-[(benzo[b]furan-3-ylcarbonyl)amino]-2,5-dichlorophenyl]acetyl]-(4S)-(cis-2,6-dimethylmorpholin-4-yl)-(2S)-pyrrolidinylmethoxy]cyclohexanecarboxylic acid] | 5.2 nM | 42 nM |  |  |  |  | 0.56 mL/min/kg | 15064 ng·h/mL |  |  |  | 
COC1CN([C@H]2C[C@@H](CO[C@H]3CC[C@H](C(=O)O)CC3)N(C(=O)Cc3cc(Cl)c(NC(=O)c4cn(C)c5ccccc45)cc3Cl)C2)C1 (relative stereo) [Example 2, Trans-4-[1-[[2,5-dichloro-4-[(1-methyl-1H-indol-3-ylcarbonyl)amino]phenyl]acetyl]-(4S)-(3-methoxyazetidin-1-yl)-(2S)-pyrrolidinylmethoxy]cyclohexanecarboxylic acid] | 2.2 nM | 17 nM |  |  |  |  | 0.40 mL/min/kg | 22185 ng·h/mL |  |  | >2000 µg/mL | >2000 µg/mL
Cn1cc(C(=O)Nc2cc(Cl)c(CC(=O)N3C[C@@H](N4CCN(C5CC5)CC4)C[C@H]3CO[C@H]3CC[C@H](C(=O)O)CC3)cc2Cl)c2ccccc21 [Example 139, Trans-4-[1-[[2,5-dichloro-4-[(1-methyl-1H-indol-3-ylcarbonyl)amino]phenyl]acetyl]-(4S)-(4-cyclopropylpiperazin-1-yl)-(2S)-pyrrolidinylmethoxy]cyclohexanecarboxylic acid] | 2.5 nM | 13 nM |  |  |  |  | 1.2 mL/min/kg | 7329 ng·h/mL |  |  |  | 
Cn1cc(C(=O)Nc2cc(F)c(CC(=O)N3C[C@@H](N4CCN(CCF)CC4)C[C@H]3CO[C@H]3CC[C@H](C(=O)O)CC3)cc2Cl)c2ccccc21 [Example 118, Trans-4-[1-[[5-chloro-2-fluoro-4-[(1-methyl-1H-indol-3-ylcarbonyl)amino]phenyl]acetyl]-(4S)-[4-(2-fluoroethyl)piperazin-1-yl]-(2S)-pyrrolidinylmethoxy]cyclohexanecarboxylic acid] | 3.9 nM | 13 nM |  |  | 1000 µg/mL (≈ 1430 µM) | 1000 µg/mL (≈ 1430 µM) |  |  | 67% | 1.41 ×10^5 |  | 

Further compounds by falling Ki [2], results first:

Ki [2] | IC50 [2] | Solubility, First liquid of Japanese Pharmacopoeia [3] | Solubility, Second liquid of Japanese Pharmacopoeia [3] | solubility [4, 6] | solubility [4, 7] | Cltot (mL/min/kg): apparent plasma clearance [5] | AUC (ng · h/ml): total area under the plasma concentration versus time curve [5] | Compound | inhibition in vivo at 5 mg/kg [1] | Average total eosinophile count (×10^5) of (ascaris-sensitized + substance under test) group [1] | Solubility, First liquid of Japanese Pharmacopoeia ([4]; JP1, pH=1.2) | Solubility, Second liquid of Japanese Pharmacopoeia ([4]; JP2, pH=6.8)
9.6 nM | 34 nM |  |  |  |  |  |  | O=C(Nc1ccc(CC(=O)N2C[C@@H](N3CCN(CC(F)(F)F)CC3)C[C@H]2CO[C@H]2CC[C@H](C(=O)O)CC2)cc1Cl)c1nccc2ccccc12 [Example 127, Trans-4-[1-[[3-chloro-4-[(isoquinolin-1-ylcarbonyl)amino]phenyl]acetyl]-(4S)-[4-(2,2,2-trifluoroethyl)piperazin-1-yl]-(2S)-pyrrolidinylmethoxy]cyclohexanecarboxylic acid] | 63% | 1.40 ×10^5 |  | 
9.5 nM | 37 nM |  |  | > 2000 µg/mL | > 2000 µg/mL | 0.80 mL/min/kg | 10799 ng·h/mL | CC1CN([C@H]2C[C@@H](CO[C@H]3CC[C@H](C(=O)O)CC3)N(C(=O)Cc3cc(Cl)c(NC(=O)c4cn(C)c5ccccc45)cc3Cl)C2)C1 [Example 10, Trans-4-[1-[[2,5-dichloro-4-[(1-methyl-1H-indol-3-ylcarbonyl)amino]phenyl]acetyl]-(4S)-(3-methylazetidin-1-yl)-(2S)-pyrrolidinylmethoxy]cyclohexanecarboxylic acid] | 44% | 1.73 ×10^5 |  | 
6.5 nM | 20 nM |  |  |  |  |  |  | C[C@@H]1CN([C@H]2C[C@@H](CO[C@H]3CC[C@H](C(=O)O)CC3)N(C(=O)Cc3cc(Cl)c(NC(=O)c4cn(C)c5ccccc45)cc3Cl)C2)C[C@H](C)O1 [Example 80, Trans-4-[1-[[2,5-dichloro-4-[(1-methyl-1H-indol-3-ylcarbonyl)amino]phenyl]acetyl]-(4S)-(cis-2,6-dimethylmorpholin-4-yl)-(2S)-pyrrolidinylmethoxy]cyclohexanecarboxylic acid] | 51% | 1.86 ×10^5 |  | 
4.9 nM | 17 nM |  |  |  |  |  |  | Cn1cc(C(=O)Nc2cc(F)c(CC(=O)N3C[C@@H](N4CCN(CC(F)(F)F)CC4)C[C@H]3CO[C@H]3CC[C@H](C(=O)O)CC3)cc2Cl)c2ccccc21 [Example 124, Trans-4-[1-[[5-chloro-2-fluoro-4-[(1-methyl-1H-indol-3-ylcarbonyl)amino]phenyl]acetyl]-(4S)-[4-(2,2,2-trifluoroethyl)piperazin-1-yl]-(2S)-pyrrolidinylmethoxy]cyclohexanecarboxylic acid] | 63% | 1.72 ×10^5 |  | 
2.8 nM | 15 nM |  |  |  |  |  |  | Cn1cc(C(=O)Nc2cc(F)c(CC(=O)N3C[C@@H](N4C[C@H]5COC[C@H]5C4)C[C@H]3CO[C@H]3CC[C@H](C(=O)O)CC3)cc2Cl)c2ccccc21 [Example 72] | 70% | 1.41 ×10^5 |  | 
1.4 nM | 12 nM | 1970 µg/mL | >2000 µg/mL |  |  |  |  | COC1CN([C@H]2C[C@@H](CO[C@H]3CC[C@H](C(=O)O)CC3)N(C(=O)Cc3cc(Cl)c(NC(=O)c4coc5ccccc45)cc3F)C2)C1 (relative stereo) [Example 5, Trans-4-[1-[[4-[(benzo[b]furan-3-ylcarbonyl)amino]-5-chloro-2-fluorophenyl]acetyl]-(4S)-(3-methoxyazetidin-1-yl)-(2S)-pyrrolidinylmethoxy]cyclohexanecarboxylic acid] |  |  |  | 
0.97 nM | 11 nM |  |  |  |  | 0.26 mL/min/kg | 32510 ng·h/mL | COC1CN([C@H]2C[C@@H](CO[C@H]3CC[C@H](C(=O)O)CC3)N(C(=O)Cc3cc(Cl)c(NC(=O)c4csc5ccccc45)cc3F)C2)C1 (relative stereo) [Example 3, Trans-4-[1-[[4-[(benzo[b]thiophen-3-ylcarbonyl)amino]-5-chloro-2-fluorophenyl]acetyl]-(4S)-(3-methoxyazetidin-1-yl)-(2S)-pyrrolidinylmethoxy]cyclohexanecarboxylic acid] |  |  | 1848 µg/mL | 1989 µg/mL
0.8 nM | 19 nM | >2000 µg/mL | >2000 µg/mL |  |  |  |  | COC1CN([C@H]2C[C@@H](CO[C@H]3CC[C@H](C(=O)O)CC3)N(C(=O)Cc3cc(Cl)c(NC(=O)c4csc5ccccc45)cc3Cl)C2)C1 (relative stereo) [Example 4, Trans-4-[1-[[4-[(benzo[b]thiophen-3-ylcarbonyl)amino]-2,5-dichlorophenyl]acetyl]-(4S)-(3-methoxyazetidin-1-yl)-(2S)-pyrrolidinylmethoxy]cyclohexanecarboxylic acid] |  |  |  | 

From patent publication US8129366B2, “VLA-4 inhibitory drug” (Daiichi Sankyo Company, Limited, priority 2005, dated 2012)
